No end group written: not given here.

Format in all cases: cell-based
In assay [1] the test system is Propionibacterium acnes. The assay can be described thus: Comparative MIC study with epidermin. The source says:
In a comparative study with epidermin or Propionibacterium acnes the following MIC values were obtained: […]

In assay [2] the test system is Peptostreptococcus anaerobicus. The assay can be described thus: MIC in liquid BF medium. Here is the method: (§1) Minimal inhibitory concentrations (MIC, Table 1) were determined in liquid BF medium of the following composition: sodium lactate 0.5%, sodium sulfate 0.5%, potassium dihydrogenphosphate 0.05%, dipotassium hydrogenphosphate 0.15%, magnesium chloride 0.02%, ammonium chloride 0.05%, glucose 1%; supplemented (per ml) with Ca-pantothenate 50 μg, folic acid 0.25 μg, niacin 50 μg, p-aminobenzoic acid 25 μg, pyridoxal hydrochloride 50 μg and riboflavin 25 μg.

The test system of assay [3] is Ps. aeruginosa BC 19. The assay is described as follows: MIC in liquid BF medium. Here is the method:
as §1

The subject of assay [4] is Sc. faecalis ATCC 29212. The assay is described as follows: MIC in liquid BF medium. The method, then: as §1
For assay [5], the system named is E. coli ATCC 11775. The assay is described as follows: MIC in liquid BF medium. The method, then:
as §1

The subject of assay [6] is Cb. xerosis ATCC 9755. The assay is described as follows: MIC in liquid BF medium. The method, then:
as §1

The subject of assay [7] is Mc. luteus 15957. The assay can be described thus: MIC in liquid BF medium. Here is the method: as §1
Assay [8] relates to St. epidermidis ATCC 12228. The assay is described as follows: MIC in liquid BF medium. Here is the method:
as §1

Assay [9] has as its system Bac. fragilis (Koln). The assay can be described thus: MIC in liquid BF medium. The method, then: as §1
In assay [10] the test system is St. pneumoniae ATCC 6302. The assay can be described thus: MIC in liquid BF medium. Here is the method: as §1
In assay [11] the test system is Mc. luteus ATCC 9341. The assay is described as follows: MIC in liquid BF medium. Here is the method: as §1
The subject of assay [12] is Bac. fragilis (Bonn). The assay is described as follows: MIC in liquid BF medium. The method, then: as §1
The test system of assay [13] is St. aureus E 88. The assay can be described thus: MIC in liquid BF medium. The method, then: as §1
Assay [14] relates to St. aureus SG 511. The assay can be described thus: MIC in liquid BF medium. The method, then: as §1
The test system of assay [15] is Sc. pyogenes ATCC 8668. The assay is described as follows: MIC in liquid BF medium. The method, then:
as §1

By MIC is commonly meant the lowest concentration that inhibits growth of the organism. Read a low MIC as greater potency. Regarding “Epidermin (IASKFICTPGCAKTGSFNSYCC; cysteine pairing not given here; also: lantibiotic: post-translational modifications not placed; UniProt P08136 31-52, looked up) [known polycyclic lanthionine peptide antibiotic obtained by cultivating a strain of Staphylococcus epidermis; differs from gallidermin by one amino acid, reference compound]”, in assay [1], the MIC was determined as 0.25 µg/mL.

Take “Gallidermin (IASKFLCTPGCAKTGSFNSYCC; cysteine pairing not given here; also: lantibiotic: post-translational modifications not placed; UniProt P21838 31-52, looked up) [polycyclic lanthionine peptide antibiotic produced by cultivation of Staphylococcus gallinarum (F16/P57) Tu 3928 (DSM 4616)]”: the MIC in assay [2] is 0.5 µg/mL; in [3] it was 128 µg/mL; in assay [4], 64 µg/mL; in assay [5], 128 µg/mL; in assay [6], 1 µg/mL; in [7], 0.5 µg/mL. Besides, the MIC amounted to 4 µg/mL in [8]; 128 µg/mL in assay [9]; 4 µg/mL in assay [10]; 0.25 µg/mL in assay [11]; 128 µg/mL in assay [12]; 8 µg/mL in [13]. In addition, the minimum inhibitory concentration (MIC) worked out at 4 µg/mL in assay [14], 1 µg/mL in assay [15] and 0.125 µg/mL in assay [1].
